Results taken from PubChem BioAssay (NCI).
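At the GI50, growth is halved. Definition used: TGI = concentration required for complete inhibition of growth.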

Key:
Experiment in all cases: NCI tumour cell line growth inhibition, 384-well format
BT-549 breast = test system: BT-549 breast
UACC-257 melanoma = test system: UACC-257 melanoma
HOP-62 NSCLC = test system: HOP-62 NSCLC
LOX IMVI melanoma = test system: LOX IMVI melanoma
MDA-MB-468 breast = test system: MDA-MB-468 breast
CCRF-CEM leukemia = test system: CCRF-CEM leukemia
SNB-19 CNS = test system: SNB-19 CNS
IGROV1 ovarian = test system: IGROV1 ovarian
M14 melanoma = test system: M14 melanoma
SF-268 CNS = test system: SF-268 CNS
HCT-116 colon = test system: HCT-116 colon
OVCAR-3 ovarian = test system: OVCAR-3 ovarian
SK-MEL-5 melanoma = test system: SK-MEL-5 melanoma
SK-OV-3 ovarian = test system: SK-OV-3 ovarian
A549 NSCLC = test system: A549 NSCLC
MCF7 breast = test system: MCF7 breast
786-0 renal = test system: 786-0 renal
SR leukemia = test system: SR leukemia
ACHN renal = test system: ACHN renal
NCI-H460 NSCLC = test system: NCI-H460 NSCLC
NCI/ADR-RES ovarian = test system: NCI/ADR-RES ovarian
RXF 393 renal = test system: RXF 393 renal
TK-10 renal = test system: TK-10 renal
HCT-15 colon = test system: HCT-15 colon
CAKI-1 renal = test system: CAKI-1 renal
SW-620 colon = test system: SW-620 colon
MOLT-4 leukemia = test system: MOLT-4 leukemia
NCI-H226 lung = test system: NCI-H226 lung
OVCAR-8 ovarian = test system: OVCAR-8 ovarian
NCI-H322M lung = test system: NCI-H322M lung
HOP-92 NSCLC = test system: HOP-92 NSCLC
U251 glioblastoma = test system: U251 glioblastoma
COLO 205 colon = test system: COLO 205 colon
HT29 colon = test system: HT29 colon
RPMI-8226 leukemia = test system: RPMI-8226 leukemia
NCI-H522 lung = test system: NCI-H522 lung
HCC-2998 colon = test system: HCC-2998 colon
SF-295 CNS = test system: SF-295 CNS
SF-539 CNS = test system: SF-539 CNS
A498 renal = test system: A498 renal
SNB-75 CNS = test system: SNB-75 CNS
MALME-3M melanoma = test system: MALME-3M melanoma
T-47D breast = test system: T-47D breast
OVCAR-5 ovarian = test system: OVCAR-5 ovarian
K-562 leukemia = test system: K-562 leukemia
HL-60(TB) leukemia = test system: HL-60(TB) leukemia
UO-31 renal = test system: UO-31 renal
PC-3 prostate = test system: PC-3 prostate
HS 578T breast = test system: HS 578T breast
EKVX NSCLC = test system: EKVX NSCLC
NCI-H23 lung = test system: NCI-H23 lung
OVCAR-4 ovarian = test system: OVCAR-4 ovarian
MDA-MB-231 breast = test system: MDA-MB-231 breast
SK-MEL-28 melanoma = test system: SK-MEL-28 melanoma
DU-145 prostate = test system: DU-145 prostate
KM12 colon = test system: KM12 colon
MDA-MB-435 melanoma = test system: MDA-MB-435 melanoma
SN12C renal = test system: SN12C renal

CC[C@@]1(c2ccccc2)C2=C(CC(C)(C)CC2=O)Nc2[nH]ncc21
GI50 (BT-549 breast): > 100 µM
TGI (BT-549 breast): > 100 µM
GI50 (UACC-257 melanoma): > 100 µM
TGI (UACC-257 melanoma): > 100 µM
GI50 (HOP-62 NSCLC): > 100 µM
TGI (HOP-62 NSCLC): > 100 µM
GI50 (LOX IMVI melanoma): > 100 µM
TGI (LOX IMVI melanoma): > 100 µM
GI50 (MDA-MB-468 breast): 30.8 µM
TGI (MDA-MB-468 breast): > 100 µM
GI50 (CCRF-CEM leukemia): > 100 µM
TGI (CCRF-CEM leukemia): > 100 µM
GI50 (SNB-19 CNS): > 100 µM
TGI (SNB-19 CNS): > 100 µM
GI50 (IGROV1 ovarian): > 100 µM
TGI (IGROV1 ovarian): > 100 µM
GI50 (M14 melanoma): 56.9 µM
TGI (M14 melanoma): > 100 µM
GI50 (SF-268 CNS): > 100 µM
TGI (SF-268 CNS): > 100 µM
GI50 (HCT-116 colon): 66.9 µM
TGI (HCT-116 colon): > 100 µM
GI50 (OVCAR-3 ovarian): > 100 µM
TGI (OVCAR-3 ovarian): > 100 µM
GI50 (SK-MEL-5 melanoma): > 100 µM
TGI (SK-MEL-5 melanoma): > 100 µM
GI50 (SK-OV-3 ovarian): > 100 µM
TGI (SK-OV-3 ovarian): > 100 µM
GI50 (A549 NSCLC): > 100 µM
TGI (A549 NSCLC): > 100 µM
GI50 (MCF7 breast): > 100 µM
TGI (MCF7 breast): > 100 µM
GI50 ([…]-0 renal): > 100 µM
TGI (786-0 renal): > 100 µM
GI50 (SR leukemia): 38.8 µM
TGI (SR leukemia): > 100 µM
GI50 (ACHN renal): > 100 µM
TGI (ACHN renal): > 100 µM
GI50 (NCI-H460 NSCLC): 35 µM
TGI (NCI-H460 NSCLC): > 100 µM
GI50 (NCI/ADR-RES ovarian): > 100 µM
TGI (NCI/ADR-RES ovarian): > 100 µM
GI50 (RXF 393 renal): 66.3 µM
TGI (RXF 393 renal): > 100 µM
GI50 (TK-10 renal): 45.2 µM
TGI (TK-10 renal): > 100 µM
GI50 (HCT-15 colon): 60 µM
TGI (HCT-15 colon): > 100 µM
GI50 (CAKI-1 renal): > 100 µM
TGI (CAKI-1 renal): > 100 µM
GI50 (SW-620 colon): > 100 µM
TGI (SW-620 colon): > 100 µM
GI50 (MOLT-4 leukemia): > 100 µM
TGI (MOLT-4 leukemia): > 100 µM
GI50 (NCI-H226 lung): > 100 µM
TGI (NCI-H226 lung): > 100 µM
GI50 (OVCAR-8 ovarian): > 100 µM
TGI (OVCAR-8 ovarian): > 100 µM
GI50 (NCI-H322M lung): > 100 µM
TGI (NCI-H322M lung): > 100 µM
GI50 (HOP-92 NSCLC): > 100 µM
TGI (HOP-92 NSCLC): > 100 µM
GI50 (U251 glioblastoma): 96.6 µM
TGI (U251 glioblastoma): > 100 µM
GI50 (COLO 205 colon): > 100 µM
TGI (COLO 205 colon): > 100 µM
GI50 (HT29 colon): > 100 µM
TGI (HT29 colon): > 100 µM
GI50 (RPMI-8226 leukemia): 54.7 µM
TGI (RPMI-8226 leukemia): > 100 µM
GI50 (NCI-H522 lung): > 100 µM
TGI (NCI-H522 lung): > 100 µM
GI50 (HCC-2998 colon): > 100 µM
TGI (HCC-2998 colon): > 100 µM
GI50 (SF-295 CNS): 50.9 µM
TGI (SF-295 CNS): > 100 µM
GI50 (SF-539 CNS): > 100 µM
TGI (SF-539 CNS): > 100 µM
GI50 (A498 renal): 98.6 µM
TGI (A498 renal): > 100 µM
GI50 (SNB-75 CNS): > 100 µM
TGI (SNB-75 CNS): > 100 µM
GI50 (MALME-3M melanoma): > 100 µM
TGI (MALME-3M melanoma): > 100 µM
GI50 (T-47D breast): > 100 µM
TGI (T-47D breast): > 100 µM
GI50 (OVCAR-5 ovarian): > 100 µM
TGI (OVCAR-5 ovarian): > 100 µM
GI50 (K-562 leukemia): > 100 µM
TGI (K-562 leukemia): > 100 µM
GI50 (HL-60(TB) leukemia): 46.3 µM
TGI (HL-60(TB) leukemia): > 100 µM
GI50 (UO-31 renal): 47.1 µM
TGI (UO-31 renal): > 100 µM
GI50 (PC-3 prostate): > 100 µM
TGI (PC-3 prostate): > 100 µM
GI50 (HS 578T breast): 64.6 µM
TGI (HS 578T breast): > 100 µM
GI50 (EKVX NSCLC): > 100 µM
TGI (EKVX NSCLC): > 100 µM
GI50 (NCI-H23 lung): > 100 µM
TGI (NCI-H23 lung): > 100 µM
GI50 (OVCAR-4 ovarian): > 100 µM
TGI (OVCAR-4 ovarian): > 100 µM
GI50 (MDA-MB-231 breast): > 100 µM
TGI (MDA-MB-231 breast): > 100 µM
GI50 (SK-MEL-28 melanoma): > 100 µM
TGI (SK-MEL-28 melanoma): > 100 µM
GI50 (DU-145 prostate): > 100 µM
TGI (DU-145 prostate): > 100 µM
GI50 (KM12 colon): > 100 µM
TGI (KM12 colon): > 100 µM
GI50 (MDA-MB-435 melanoma): > 100 µM
TGI (MDA-MB-435 melanoma): > 100 µM
GI50 (SN12C renal): > 100 µM
TGI (SN12C renal): > 100 µM
